Source: ChEMBL document CHEMBL5137134, “Developing the Natural Prenylflavone Artocarpin from Artocarpus hirsutus as a Potential Lead Targeting Pathogenic, Multidrug-Resistant Staphylococcus aureus, Persisters and Biofilms with No Detectable Resistance” (J Nat Prod, 2022)
Converted amounts (≈) assume the structure as drawn. The source made the active and inactive calls. The rule behind the calls is not given here.

Experiments:
Staphylococcus aureus [1] = assay: Antibacterial activity against methicillin/levoflaxacin/vancomycin/meropenem/gentamycin/spectinomycin/teicoplanin resistant Staphylococcus aureus VRS 1 assessed as reduction in bacterial growth incubated for 16 to 18 hrs by broth microdilution method; type: functional; settings: time 16-18 hrs
Staphylococcus aureus [2] = assay: Bactericidal activity against Staphylococcus aureus ATCC 29213 assessed as decrease in intracellular ATP level after 1 hr by ATP bioluminescence assay; type: functional, organism-based; settings: DDE = dose-dependent effect
Acinetobacter baumannii = assay: Antibacterial activity against Acinetobacter baumannii BAA 1605 assessed as reduction in bacterial growth incubated for 16 to 18 hrs in presence of PMBN by broth microdilution method; type: functional; settings: time 16-18 hrs
Staphylococcus aureus [3] = assay: Antibacterial activity against Staphylococcus aureus ATCC 29213 infected in BALB/c mouse neutropenic thigh infection model assessed as reduction in thigh bacterial load at 50 mg/kg, ip pre-infected with bacteria for 3 hrs followed by compound addition twice at a interval of 3 hrs and measured after 24 hrs; type: functional
Staphylococcus aureus [4] = assay: Synergistic antibacterial activity against Staphylococcus aureus ATCC 29213 assessed as fractional inhibitory concentration incubated for 24 hrs in presence of minocycline by checkerboard method; type: functional
[5] = Cytotoxicity against African green monkey Vero cells after 72 hrs by MTT assay; type: toxicity, cell-based; settings: chlorocebus sabaeus
Staphylococcus aureus [6] = assay: Bactericidal activity against Staphylococcus aureus ATCC 29213 assessed as reduction in log10 CFU at 10 times MIC after 5 mins by time kill assay; type: functional
Staphylococcus aureus [7] = assay: Antibacterial activity against methicillin/levoflaxacin/meropenem/erythromycin resistant Staphylococcus aureus NRS 192 assessed as reduction in bacterial growth incubated for 16 to 18 hrs by broth microdilution method; type: functional; settings: time 16-18 hrs
Enterococcus [8] = assay: Antibacterial activity against vancomycin sensitive/methicillin resistant Enterococcus NR 31888 assessed as reduction in bacterial growth incubated for 16 to 18 hrs by broth microdilution method; type: functional; settings: time 16-18 hrs
Staphylococcus aureus [9] = assay: Antibacterial activity against methicillin/levoflaxacin/vancomycin/meropenem/gentamycin/spectinomycin/teicoplanin resistant Staphylococcus aureus VRS 12 assessed as reduction in bacterial growth incubated for 16 to 18 hrs by broth microdilution method; type: functional; settings: time 16-18 hrs
Staphylococcus aureus [10] = assay: Synergistic antibacterial activity against Staphylococcus aureus ATCC 29213 assessed as reduction in bacterial growth incubated for 24 hrs in presence of rifampicin by checkerboard method; type: functional
Staphylococcus aureus [11] = assay: Bactericidal activity against Staphylococcus aureus ATCC 29213 assessed as increase in extracellular ATP level after 1 hr by ATP bioluminescence assay; type: functional, organism-based; settings: DDE = dose-dependent effect
Staphylococcus aureus [12] = assay: Synergistic antibacterial activity against Staphylococcus aureus ATCC 29213 assessed as fractional inhibitory concentration incubated for 24 hrs in presence of daptomycin by checkerboard method; type: functional
Staphylococcus aureus [13] = assay: Synergistic antibacterial activity against Staphylococcus aureus ATCC 29213 assessed as reduction in bacterial growth incubated for 24 hrs in presence of linezolid by checkerboard method; type: functional
Staphylococcus aureus [14] = assay: Antibiofilm activity against Staphylococcus aureus ATCC 29213 assessed as reduction in preformed bacterial biofilm mass at 1 time MIC incubated for 24 hrs by crystal violet staining based microtiter plate reader assay; type: functional; parameters: scale not given: the % may be the effect or the level left
Staphylococcus aureus [15] = assay: Synergistic antibacterial activity against Staphylococcus aureus ATCC 29213 assessed as fractional inhibitory concentration incubated for 24 hrs in presence of gentamycin by checkerboard method; type: functional
Staphylococcus aureus [16] = assay: Post antibiotic effect against Staphylococcus aureus ATCC 29213 at 1 time MIC incubated for 1 hr followed by replacement with drug free medium and measured every 1 hr (reference value: 0 hr); type: functional
Staphylococcus aureus [17] = assay: Bactericidal activity against Staphylococcus aureus ATCC 29213 assessed as visible cell destruction at 2.5 times MIC after 30 mins by scanning electron microscopy analysis; type: functional, organism-based
Staphylococcus aureus [18] = assay: Synergistic antibacterial activity against Staphylococcus aureus ATCC 29213 assessed as fractional inhibitory concentration incubated for 24 hrs in presence of linezolid by checkerboard method; type: functional
Staphylococcus aureus [19] = assay: Bactericidal activity against Staphylococcus aureus ATCC 29213 assessed as reduction in log10 CFU at 2.5 times MIC after 5 mins by time kill assay; type: functional
Staphylococcus aureus [20] = assay: Synergistic antibacterial activity against Staphylococcus aureus ATCC 29213 assessed as fractional inhibitory concentration incubated for 24 hrs in presence of meropenem by checkerboard method; type: functional
Staphylococcus aureus [21] = assay: Post antibiotic effect against Staphylococcus aureus ATCC 29213 assessed as time required for 1 log10 increase in CFU at 1 time MIC incubated for 1 hr followed by replacement with drug free medium and measured every 1 hr (reference value: 2 hrs); type: functional
Enterococcus [22] = assay: Antibacterial activity against vancomycin sensitive/methicillin resistant Enterococcus NR 31885 assessed as reduction in bacterial growth incubated for 16 to 18 hrs by broth microdilution method; type: functional; settings: time 16-18 hrs
Staphylococcus aureus [23] = assay: Post antibiotic effect against Staphylococcus aureus ATCC 29213 assessed as time required for 1 log10 increase in CFU at 10 times MIC incubated for 1 hr followed by replacement with drug free medium and measured every 1 hr (reference value: 2 hrs); type: functional
Staphylococcus aureus [24] = assay: Antibacterial activity against chloramphenicol resistant Staphylococcus aureus NRS 129 assessed as reduction in bacterial growth incubated for 16 to 18 hrs by broth microdilution method; type: functional; settings: time 16-18 hrs
Staphylococcus aureus [25] = assay: Antibacterial activity against Staphylococcus aureus ATCC 29213 infected in Swiss mouse skin infection model assessed as reduction in skin bacterial load at 1 % dose administered twice daily for 4 days; type: functional; settings: time 4 day
Enterococcus [26] = assay: Antibacterial activity against vancomycin/methicillin/levoflaxacin/minocycline resistant Enterococcus NR 31903 assessed as reduction in bacterial growth incubated for 16 to 18 hrs by broth microdilution method; type: functional; settings: time 16-18 hrs
Staphylococcus aureus [27] = assay: Synergistic antibacterial activity against Staphylococcus aureus ATCC 29213 assessed as reduction in bacterial growth incubated for 24 hrs in presence of vancomycin by checkerboard method; type: functional
Staphylococcus aureus [28] = assay: Synergistic antibacterial activity against Staphylococcus aureus ATCC 29213 assessed as fractional inhibitory concentration incubated for 24 hrs in presence of levofloxacin by checkerboard method; type: functional

COc1cc2oc(-c3ccc(O)cc3O)c(CC=C(C)C)c(=O)c2c(O)c1/C=C/C(C)C [ARTOCARPIN]
MIC (Staphylococcus aureus [1]): 4 µg/mL (≈ 9.16 µM)
Activity (Staphylococcus aureus [2]): Dde
MIC (Acinetobacter baumannii): 4 µg/mL
Activity (Staphylococcus aureus [3]): 0.6 log10CFU/g
FIC (Staphylococcus aureus [4]): 0.25
CC50 at 72 h [5]: 80 µg/mL (≈ 183 µM)
Activity (Staphylococcus aureus [6]): 2.07 log10CFU/ml
MIC (Staphylococcus aureus [7]): 4 µg/mL (≈ 9.16 µM)
MIC (Enterococcus [8]): 2 µg/mL (≈ 4.58 µM)
MIC (Staphylococcus aureus [9]): 4 µg/mL (≈ 9.16 µM)
MIC (Staphylococcus aureus [10]): 2 µg/mL
Activity (Staphylococcus aureus [11]): Dde
FIC (Staphylococcus aureus [12]): 0.25
MIC (Staphylococcus aureus [13]): 1 µg/mL
Activity (Staphylococcus aureus [14]): 34%
FIC (Staphylococcus aureus [15]): 0.015
PAE (Staphylococcus aureus [16]): 3 h
Activity (Staphylococcus aureus [17]): Active
FIC (Staphylococcus aureus [18]): 0.25
Activity (Staphylococcus aureus [19]): 1.4 log10CFU/ml
FIC (Staphylococcus aureus [20]): 0.5
Time (Staphylococcus aureus [21]): 5 h
MIC (Enterococcus [22]): 2 µg/mL (≈ 4.58 µM)
Time (Staphylococcus aureus [23]): 24 h
MIC (Staphylococcus aureus [24]): 4 µg/mL (≈ 9.16 µM)
Activity (Staphylococcus aureus [25]): 1 log10CFU/g
MIC (Enterococcus [26]): 2 µg/mL (≈ 4.58 µM)
MIC (Staphylococcus aureus [27]): 2 µg/mL
FIC (Staphylococcus aureus [28]): 0.5
